Measured values as given in patent US20230263808A1 (UNIVERSITY OF FLORIDA RESEARCH FOUNDATION, INCORPORATED, priority 2020, published 2023).
“Also recorded” adds a separate entry of the source.

Experiments:
[1] = test system: mitochondrial activity, pAKT, protein synthesis, and bone; test: Compound profiling platform, overall profile (FIG. 15); assay type: cell-based; conditions: for overall profile in compound profiling (anabolic effects, agonism): 10 uM
Description: N=4-6 from two different experiments. […] D) Mitochondrial activity was measured in myoblasts using high content imaging with mitotracker dye after 24 treatment. New amino acid incorporation was measured with LICOR in cell western for puromycin (SunSet assay). […] N=3, mean+SEM. […] N=4, mean+SEM, 2-way ANOVA.
(§1) To avoid such effects on myogenesis, we switched myoblasts to differentiation media, and then on day 4, added 10 μM cytarabine, a chemotherapy agent that kills dividing cells, and then adding GCs on day 6 or 7 and completing assays in day 8 (FIG. 8).
(§2) Physiologically, the effects of GCs on protein balance and Glut4 translocation vary in vivo depending upon the stressor. For example, GCs mediate atrophy in response to fasting but not exercise. […] To assess protein degradation, we measured chymotrypsin-like proteasomal activity (FIG. 2, A). The activating phosphorylation of AKT at Thr308 (pAKT) was measured using a LI-COR In-Cell Western assay (FIG. 2, B and C). The rate-limiting step in insulin-mediated glucose uptake is the translocation of the glucose transporter, Glut4, to the surface membrane, which we also measured by In-Cell Western without permeabilizing the myotubes (FIG. 2, D). Surface Sensing of Translation (SUnSET) (Schmidt et al., Nat Methods 6, 275-277, 2009) assay was used to measure protein synthesis by In-Cell Western, following treatment of myotubes with a low dose of puromycin, which incorporates into translating proteins, but at a low enough level to provide a readout for global protein synthesis (FIG. 2, E). Lastly, we developed a high-content imaging assay in myoblasts stained with a MitoTracker dye, so that individual mitochondrial networks could be visualized with adequate resolution to quantitate area, segmentation, branching, and fluorescence intensity which is a measure of mitochondrial membrane potential (ψm).
Additional studies were performed to assess activities of the various compounds identified from the previous profiling.

[2] = test system: IL-1β-induced IL-6 secretion by A549 lung cells; test: IL-1β-induced IL-6 secretion by A549 lung cells (AlphaLISA); assay type: cell-based; conditions: 10 μM
Excerpt: (§3) A) Correlation of correlation (COC) plots where each point represents the Pearson correlation coefficient, r, between a distinct gene expression or GR-peptide interaction assay with assays indicated on the x and y axes. B) The effects of all tested compounds on IL-1β-induced secretion of IL-6 (y axes) and GC-regulated phenotypes indicated on the x axes. C) The effects of all tested compounds on IL-1β-induced secretion of IL-6 (y axis) and bone mineralization (x axis). D) IL-1β-induced IL-6 production by A549 cells treated with 10 μM of the indicated compounds was compared by AlphaLISA. E-H) Myoblasts were assayed as described in FIG. 8. I) Representative myoblasts imaged during the mitochondrial potential assay. J) Plasma TNFα levels of C57BL/6 male mice treated pretreated with the indicated ligands. K) Changes in lean mass of mice in panel J were determined by whole-body NMR after an additional 18 h LPS treatment. Data shown are mean+SEM.
In order to understand whether effects on skeletal muscle could be dissociated from anti-inflammatory effects of the ligands, we profiled the compounds for suppression of IL1β-induced IL-6 secretion by A549 lung cells. Examining the correlations between assays can be used to identify dissociated assays that selectively correlate with a given phenotype, predicting discovery of dissociated ligands. […] We call this a correlation of correlations (COC) plot. […] These include recruitment of NCOA2 and NCOA3 peptides, coactivators that we and others have shown to be required for GC-dependent suppression of inflammation in different cell types (FIG. 11, A). However, for the mitochondrial assay and IL-6, there are dissociated assays shown by points that are far out from the regression line in the COC plot (FIG. 7, A). For example, interaction of CHD9 with GR predicted mitochondrial activity but not Glut4 translocation (FIG. 11, B), while interaction with the CENPR peptide selectively predicted effects on Glut4 translocation (FIG. 11, C). […] Assays that correlated with effects of the ligands on GR nuclear translocation were also highly correlated with Glut4 translocation and suppression of IL-6 secretion (FIG. 11, F). Therefore, the COC curves provide a way to identify common signaling mechanisms between different GR target tissues and signaling pathways.

C2C12 myotubes [3] = test: Protein degradation: chymotrypsin-like proteasomal activity in C2C12 myotubes; assay type: cell-based, mouse
Description: (§4) A) C2C12 myotubes were assayed for chymotrypsin-like proteasomal activity. […] C) Quantitation of the ICW in panel B. D) ICW for surface expression of Glut4 on L6 myotubes. E) ICW for insulin-induced incorporation of puromycin into C2C12 myotube surface proteins. F-G) High-content imaging and analysis of C2C12 myoblasts stained with a Mitotracker dye. H) Assay reproducibility from screening 22 compounds on two separate occasions. The Pearson correlation coefficient, r, and its associated p-value is indicated.
(§5) C2C12 myocytes were used in all assays, except in the Glut4 translocation assay where L6 rat myocytes were used. ICW, In-Cell Western. Also see Methods.
as §1
as §2, with “Lastly, we developed a high-content imaging assay in myoblasts stained with a MitoTracker dye, so that individual mitochondrial networks could be visualized with adequate resolution to quantitate area, segmentation, branching, and fluorescence intensity which is a measure of mitochondrial membrane potential (ψm).” left out

L6 myotubes = test: Glut4 translocation to the myotube surface (In-Cell Western); assay type: cell-based, rat
Description: as §4, §5, §2

C2C12 myoblasts = test: Mitochondrial potential, high-content imaging with MitoTracker dye; assay type: cell-based, mouse
Description: as §4
(§6) A) Each dot represents the effects of a compound in the indicated assays at 10 uM. N=4-6 from two different experiments. […] C) SR11466 is efficacious at inhibiting IL-6 secretion from A549 cells. C-E). […] D) Mitochondrial activity was measured in myoblasts using high content imaging with mitotracker dye after 24 treatment. New amino acid incorporation was measured with LICOR in cell western for puromycin (SunSet assay). E) top, MMTV-luciferase reporter data. N=3, mean+SEM. Bottom, Mineralization of primary human OBs was assayed after two weeks of differentiation from MSC and two weeks of mineralization. N=4, mean+SEM, 2-way ANOVA.
as §2

C2C12 myotubes [4] = test: Insulin-induced protein synthesis (SUnSET, In-Cell Western) in C2C12 myotubes; assay type: cell-based, mouse; conditions: fasting conditions
Description: as §4, §5, §1, §2

pAKT in C2C12 myotubes = test: Insulin-induced pAKT (Thr308) In-Cell Western; assay type: cell-based, mouse
Description: as §4
A) Pearson correlations were calculated between the indicated variables. The different lines indicate statistically significant correlations at the corresponding p-value thresholds. Solid lines indicate positive correlations, dashed lines indicate negative correlations. […]
Physiologically, the effects of GCs on protein balance and Glut4 translocation vary in vivo depending upon the stressor. […] To assess protein degradation, we measured chymotrypsin-like proteasomal activity (FIG. 2, A). The activating phosphorylation of AKT at Thr308 (pAKT) was measured using a LI-COR In-Cell Western assay (FIG. 2, B and C). The rate-limiting step in insulin-mediated glucose uptake is the translocation of the glucose transporter, Glut4, to the surface membrane, which we also measured by In-Cell Western without permeabilizing the myotubes (FIG. 2, D). […]

LPS-induced TNFα = test: LPS-induced plasma TNFα levels in mice; assay type: in vivo, C57BL/6 male mice; conditions: mice pretreated with ligand
Excerpt: as §3

[5] = Loss of lean mass after a larger dose of LPS (whole-body NMR); assay type: in vivo, C57BL/6 male mice; conditions: additional 18 h LPS treatment
Excerpt: as §3

[6] = Lactate-tolerance test (rate of glucose production); assay type: in vivo, C57BL/6 male mice; conditions: after overnight fast; 10 mg/kg Dex or SR16024, 50 mg/kg SR11466
Excerpt: A) The effects of all tested compounds on IL-1β-induced IL-6 production (x-axes) versus GR interaction with the indicated peptides. B-C) The effects of all tested compounds on the indicated GC-regulated phenotypes (x-axes) versus GR interaction with the CHD9_1023 and CENPR_1 peptides (y-axes). D-F) COC plots. Each point represents the Pearson correlation coefficient, r, between a distinct gene expression or GR-peptide interaction assay with assays indicated on the x and y axes. G) The effects of all tested compounds on IL-1β-induced IL-6 production (y-axes) versus insulin-induced protein synthesis. […] IL-β-induced IL-6 production by A549 cells treated with the indicated compounds was compared by AlphaLISA. […] Mice in panel K were subjected to a lactate-tolerance test (LTT).
We were also interested in whether the compounds would show dissociation between Glut4 translocation in skeletal muscle and gluconeogenesis in the liver, but enhanced glucose production is typically studied after weeks or months of GC treatment. However, we reasoned that an overnight fast should enable detection of effects after a single dose. […] Thus, profiling effects of GCs in the physiological context of nutrient deprivation allowed the discovery of two new types of glucocorticoids with improved profiles in skeletal muscle.

myoblasts = test: Myoblast proliferation and fusion into myotubes; assay type: cell-based
[7] = background statement; cited from earlier work
GILZ mRNA = test: GILZ gene expression; assay type: cell-based
[8] = test system: primary human osteoblasts; test: Osteoblast mineralization (Alizarin Red S) from mesenchymal stem cells; assay type: cell-based
Description: as §6
As a further test for dissociation, the compounds were profiled in primary human osteoblasts for effects on osteogenesis during 4 weeks of differentiation from mesenchymal stem cells. Specifically, osteoblast mineralization was examined as follows. Human mesenchymal stem cells (MSCs) at passage 2 were maintained in growth media consisted of alpha-MEM (Life Technologies, 32561-037) supplemented with 17% FBS (Sigma-Aldrich, 12303C), 2 mM L-glutarnine (Life Technologies, 25030-081), and 100 units/mL penicillin/streptomycin (Life Technologies, 15140-122). Effect of glucocorticoid receptor modulators on osteogenic differentiation of MSCs was quantified using Alizarin Red S (Sigma-Aldrich, A5533) staining. Briefly, human MSCs were seeded in the middle 8 wells of 48-well plates at plating density of 10,000 cells per well. PBS (Life Technologies, 10010-031) was added to surrounding wells to reduce evaporation of media in the middle wells during prolonged incubation. 24 h later, growth media was replaced by osteogenic induction media (OIM) consisted of low-glucose DMEM (Life Technologies, 10567-014) supplemented with 10% FBS (Sigma-Aldrich. 12303C), 50 μg/ml L-ascorbic-2-phosphate (Sigma-Aldrich, A8960), 10 mM β-glyceroiphosphate (Sigma-Aldrich, G9891), and glucocorticoid modulators. OIM containing test compounds was replaced every week. At the end of 2 weeks, monolayers were washed with PBS (Life Technologies, 10010-031), incubated in Richard-Allan Scientific™ Neutral Buffered Formalin (10%) (Thermo Scientific, 5725) for 2 h at room temperature, washed with deionized water and stained with Alizarin Red S for 30 min at room temperature. Monolayers were then rinsed 3×with deionized water until clear, stain was then extracted with 10% (w/v) cetylpyridinium chloride (Sigma-Aldrich, C0732) in 10 mM sodium phosphate (Sigma, S5011 and S5136), pH 7.0 for 15 min at room temperature and the amount of extracted dye quantified spectroscopically at 562 nm. Spectroscopic analysis performed using a synergy™ NEO HTS Multi-Mode Microplate Reader (BioTek Instruments, Inc.).

## CC#CC1(O)CCC2C3CCc4cc(C(=O)Nc5cccnc5C)ccc4C3C(OCc3cccc(Cl)c3)CC21C (stereo not drawn) [SR16023]
[1]
  overall profile in compound profiling (anabolic effects, agonism): anabolic effects

## CC#CC1(O)CCC2C3CCc4cc(C(=O)Nc5cccnc5C)ccc4C3C(OC)CC21C (stereo not drawn) [SR15960]
[2]
  inhibition of IL-1β-induced IL-6 secretion (anti-inflammatory): fully inhibiting IL-6 secretion

## CC#CC1(O)CCC2C3CCc4cc(C(=O)Nc5ccc(C)nc5)ccc4C3C(O)CC21C (stereo not drawn) [SR15419]
[1]
  overall profile in compound profiling (anabolic effects, agonism): anabolic effects

## CC#CC1(O)CCC2C3CCc4cc(C(=O)Nc5cccnc5C)ccc4C3C(OCC)CC21C (stereo not drawn) [SR15961]
[2]
  inhibition of IL-1β-induced IL-6 secretion (anti-inflammatory): fully inhibiting IL-6 secretion

## Cc1ncccc1NC(=O)c1ccc2c(c1)CC[C@@H]1C[C@@](O)(C(F)(F)F)CC[C@@]21Cc1ccccc1 [PF802, reference compound]
C2C12 myotubes [3]
  effect on protein degradation (proteasomal): stimulated protein degradation as strongly as Dex
L6 myotubes
  effect on Glut4 translocation: slightly improved compared to Dex
C2C12 myoblasts
  effect on mitochondrial activity / potential: strongly inhibited
[1]
  overall profile in compound profiling (anabolic effects, agonism): partial agonist

## CC#CC1(O)CCC2C3CCc4cc(C(=O)Nc5ncccc5C)ccc4C3C(O)CC21C (stereo not drawn) [SR15438]
[1]
  overall profile in compound profiling (anabolic effects, agonism): anabolic effects

## C[C@@H]1C[C@H]2[C@@H]3CCC4=CC(=O)C=C[C@]4(C)[C@@]3(F)[C@@H](O)C[C@]2(C)[C@@]1(O)C(=O)CO [Dex, dexamethasone, reference compound]
C2C12 myotubes [4]
  potency for modulating protein synthesis: low nM
C2C12 myotubes [3]
  effect on protein degradation (proteasomal): stimulated protein degradation
L6 myotubes; fasting conditions
  potency for modulating Glut4 translocation: low nM
C2C12 myoblasts
  Dex concentration sufficient to produce the maximal loss of mitochondrial oxidative capacity: 1 nM
  effect on mitochondrial activity / potential: strongly inhibited; also recorded: reduced
pAKT in C2C12 myotubes; 1 hr treatment
  insulin-mediated pAKT after 1 hr of treatment: not inhibited
pAKT in C2C12 myotubes; fasting conditions
  potency for modulating pAKT: low nM
LPS-induced TNFα
  LPS-induced TNFα levels in the blood: strongly suppressed
[5]
  loss of lean mass following a larger dose of LPS: significantly worsened
[6]
  rate of glucose production in lactate tolerance test: increased the rate of glucose production
[1]; myotubes, serum starvation, insulin challenge, cytarabine treatment
  dosing at which effects on the insulin signaling pathway are shown: 1 to 10 nM
myoblasts
  fusion into myotubes: promotes fusion
  myoblast proliferation: strongly inhibits
[7]
  concentration required for effects on protein balance in vitro: 50 to 100 µM

## CC#CC1(O)CCC2C3CCc4cc(C(=O)Nc5cccnc5C)ccc4C3C(OCc3ccccc3)CC21C (stereo not drawn) [SR11469]
[2]
  inhibition of IL-1β-induced IL-6 secretion (anti-inflammatory): weakly anti-inflammatory
GILZ mRNA
  GILZ gene expression: not activating GILZ
[1]
  overall profile in compound profiling (anabolic effects, agonism): more antagonistic SGRMs; also recorded: anabolic effects

## C[C@]12CC[C@H]3[C@@H](CCC4=CC(=O)CC[C@@]43C)[C@@H]1CC[C@@H]2O [testosterone, reference compound]
[8]
  effect on mineralization (bone): no effect
